Laboratory results published in patent US20180111991A1, “MODULATORS OF ACTIVIN AND METHODS FOR MODULATING IMMUNE RESPONSES AND T FOLLICULAR HELPER CELLS” (LA JOLLA INSTITUTE FOR ALLERGY AND IMMUNOLOGY, priority 2014, published 2018).
Entries after “also recorded” stand apart in the source; their conditions may differ.

How the values were obtained:
human naïve CD4 T cells [1] = test: RNA sequencing and GSEA of in vitro differentiated CD4 T cells; type: cell-based; details: for genes differentially upregulated, activin A+IL-12 versus TGFβ+IL-12: each cytokine combined with IL-12, RNA-seq day 3; for expression of bona fide GC Tfh signature genes (GSEA): activin A or activin A+IL-12 versus beads, IL-12
Experimental: Differentiation of naïve CD4^+ T cells with activin A and/or IL-12 was described above. Naïve CD4 T cells from 4 or more donors were cultured with the following conditions: beads only (beads), IL-12, activin A (100 ng/ml), activin A (100 ng/ml)+IL-12, TGFβ, TGFβ+IL-12. After 3 days of in vitro culture, live CD4^+ T cells were sorted by FACS. Total RNA was purified using miRNAeasy Mini kit (Qiagen). Standard quality control steps were included to determine total RNA quality using Agilent Bioanalyzer (RNA integrity number (RIN)>8.5; Agilent RNA 6000 Nano Kit, USA) and quantity using a nanoliter spectrophotometer (Nanodrop, Thermofisher, USA). For every sample, 500 ng of purified total RNA was prepared into mRNA libraries, according to manufacturer's instructions, using the Truseq Stranded mRNA Library Prep Kit (Illumina, RS-122-2103). The resulting libraries were deep sequenced, using the Illumina HiSeq2500 system in rapid run mode, to obtain between 6 to 7 millions of 50-bp length single-end reads per library.
The single-end reads that passed Illumina filters were filtered for reads aligning to tRNA, rRNA, adapter sequences, and spike-in controls. The reads were then aligned to UCSC hg19 reference genome using TopHat^55(v 1.4.1). DUST scores were calculated with PRINSEQ Lite^56 (v 0.20.3) and low-complexity reads (DUST >4) were removed from the BAM files. The alignment results were parsed via the SAMtools^57 to generate SAM files. Read counts to each genomic feature were obtained with the htseq-count program^58 (v 0.6.0) using the “union” option. After removing absent features (zero counts in all samples), the raw counts were converted to RPKM value followed by quantile normalization via R library ‘aroma.light’ ^59. Then the quantile normalized RPKM values were filtered by setting a cutoff value of 1 and analyzed with the Multiplot module in GenePattern suite (http://www.broadinstitute.org/cancer/software/genepattern/) to generate the Volcano, Heatmap and Expression plots. Meanwhile the filtered raw counts were imported to R/Bioconductor package DESeq2^60 (v 3.1) to normalize counts and identify differentially expressed genes among conditions.
The tonsil GC Tfh gene set was generated from previously published microarray data^38 and defined by genes with more than two-fold higher expression in GC-Tfh cells (CD4^+CD45RO^+PD-1^hiCXCR5^hi) compared to non-Tfh cells (CD4^+CD45RO^+PD-1^−CXCR5^−). […] The signal-to-noise metric was used for ranking the genes in the RNA-seq expression datasets and 10^5 cycles of permutations on the phenotype labels were performed to determine the normalized enrichment score (NES).

human naïve CD4 T cells [2] = test: Screening of secretomics recombinant proteins for Tfh marker induction; type: cell-based; details: secretomics protein screen, anti-CD3/CD28 beads, 5 days, automated FACS
Experimental: FIG. 1A-D: Inhibin beta A (INHBA) emerged from the screen as potent regulator of human Tfh differentiation. (A) Schematic of primary screen. Purified human naïve CD4 T cells from a leukapheresis donor were stimulated by anti-CD3/CD28 beads on 384 well plates on day 0. The GNF secretomics recombinant proteins were added at the beginning of the stimulation. Each secretomics protein was tested in duplicate. After 5 days of in vitro culture, cells were evaluated by automated FACS analysis for the expression of Tfh signature markers, including CXCR5 and PD-1. (B) Primary screen results. Relative enrichment of PD-1^+CXCR5^+ cell induction is reported as Z score for each recombinant protein. INHBA gene product is shown in red. (C) CXCR5 and PD-1 expression from repeat experiment in which INHBA gene product was tested again for its capacity to induce Tfh-like differentiation. (D) Confocal microscopy of INHBA expression in human tonsils. Tonsil sections were stained with anti-INHBA (red) anti-BCL6 (blue) and anti-CD3 (green) Abs. An overlay from one donor representative of six is shown on the left panel. […]
Naïve CD4^+ T cells were isolated from leukapheresis-derived mononuclear cells via CliniMACS negative selection (Miltenyi Biotec). […] Induction of CXCR5 and PD-1 was assessed after 5 days of in vitro culture using automated FACS acquisition via HTS on LSR Fortessa (BD Biosciences). For each 384 well plate, mean and standard deviation of PD-1^+CXCR5^+ cell frequency induced by each individual recombinant proteins was determined and used to calculate the Z score. Z scores of replicate plates were analyzed independently.
To discover novel regulators of human Tfh cell differentiation, we performed an unbiased high throughput screen of a human extracellular proteome library consisting of over 2000 human proteins predicted or known to be cytokines, chemokines, morphogens, costimulatory receptors, or single pass transmembrane molecules^19. […] Following 5 days, expression of the Tfh signature markers CXCR5 and PD-1 were measured on the cells by flow cytometry, in an automated fashion. […]

TGFβ
genes differentially upregulated, activin A+IL-12 versus TGFβ+IL-12 (human naïve CD4 T cells [1]): 45 genes | induction of CXCR5 and PD-1 expression (PD-1+CXCR5+ cells) (human naïve CD4 T cells [2]): regulator T cell differentiation

activin A: commercial recombinant cytokine, homodimer of the INHBA gene product (inhibin beta A)
regulation of Tfh-signature genes LIF, LTA, PDCD1, TNF (human naïve CD4 T cells [1]; RNA-seq day 3, heat-map (FIG. 2K)): major factor regulating several Tfh-signature genes such as LIF, LTA, PDCD1, and TNF | expression of bona fide GC Tfh signature genes (GSEA) (human naïve CD4 T cells [1]): imprinted with bona fide GC Tfh signature genes | expression of bona fide GC Tfh signature genes (GSEA) (human naïve CD4 T cells [1]; listed as Activin A): contributed more than IL-12 to driving expression of bona fide GC Tfh associated genes | genes selectively upregulated versus beads only (human naïve CD4 T cells [1]; activin A+IL-12, RNA-seq day 3): 116 genes | genes suppressed versus beads only (human naïve CD4 T cells [1]; activin A+IL-12, RNA-seq day 3): 60 genes | genes differentially upregulated, activin A+IL-12 versus TGFβ+IL-12 (human naïve CD4 T cells [1]): 35 genes | induction of CXCR5 and PD-1 expression (PD-1+CXCR5+ cells) (human naïve CD4 T cells [2]): potent regulator of the human Tfh gene program; also recorded: top hit in the screen
